Laboratory results reported in patent publication US7871797B2, “DNA encoding a bacterial protease for degrading gelatin and collagen” (Jellice Co., Ltd., priority 2003, dated 2011).
Where two headings read alike, the source gives them in different places. Starred links: 1 amine or outer side, 2 acyl side, 3 side chain; linkers in the order of their positions; H or OH if unused. Non-standard residues stand in square brackets, D forms with d. No end group written: not given here. *: point of attachment. K(DNP) = O=C([C@H](CCCCNc1ccc([N+](=O)[O-])cc1[N+](=O)[O-])N[*:1])[*:2]; Dnp = O=[N+]([O-])c1ccc(*)c([N+](=O)[O-])c1; Benzoyl(2-NHMe) = CNc1ccccc1C(=O)*

Experiments:
[1] = tested on: enzyme (protease) of the present invention; test: Cutting activity (specific protease activity) on fluorescence-labeled synthetic peptides; type: biochemical, Aureobacterium sp. MIM-CG-9535-I; details: for Protease cutting activity (degradation of synthetic substrate), Enzyme of the present invention: 100 microgram labeled peptide, 1 microgram protease, 10 min at 37° C. in the dark; for Present or Absent of Specific degradation activity: fluorescence-labeled peptides with varied peptide chain
Text: Fluorescence-labeled peptides having the amino acid sequences denoted by (1) to (3) below are synthesized by the usual methods. Specifically, a fluorescent substance is attached as label on one side of the cutting site of a peptide having one of the amino acid sequences listed below, and a light-extinguishing substance is attached on the other side. Only when the labeled peptide has been cleaved is florescence detected. No fluorescence is detected even when employed as substrate for an enzyme not having cutting activity on the amino acid sequences given below. The substances used to label the peptide are not specifically limited other than that they be fluorescent and light-extinguishing substances. For example, N-methylanthranic acid can be employed as the fluorescent substance, and a dinitrophenyl group can be employed as the light-extinguishing substance.
To determine specific protease activity in the present invention, a fluorescence-labeled synthetic peptide, obtained by labeling a peptide having one of the amino acid sequences denoted by (1) to (3) above with N-methylanthranic acid on one end and labeling the other end thereof with a dinitrophenyl group, is employed as substrate and incubated with a prescribed quantity of enzyme for a prescribed period in the dark. Subsequently, the product is separated by reverse-phase chromatography and the fluorescent intensity of the separated product is measured to determine cutting activity.
Nma/Dnp florescence-labeled peptides (excitation wavelength 340 nm, fluorescence wavelength 440 nm) having the amino acid sequences of (1) to (3) below labeled on one end with N-methylanthranic acid and on the other end with a dinitrophenyl group were synthesized with a peptide synthesizer by the usual method.
Employing as substrate one of the fluorescence-labeled synthetic peptides obtained, cutting activity was measured under the following conditions.
(§1) A 100 microgram quantity of fluorescence-labeled synthetic peptide was adjusted to 0.2 mg/mL with 10 mM Tris buffer solution, 1 microgram of the above protease of the present invention was added, and the mixture was incubated for 10 min at 37° C. in the dark. The enzyme reaction solution obtained was subjected to reverse-phase HPLC using TSKgel® ODS-80Ts (silica-based, reverse phase chromatography resin; Tosoh Corp.) from 0.1 percent TFA to 80 percent acetonitrile-0.1 percent TFA at a flow rate of 1 mL/min and a gradient of 40 min to separate the degraded peptides. Employing A215 and a fluorescence spectrometer for high-performance liquid chromatography made by Shimatsu Corp., fluorescent intensity was measured at an excitation wavelength of 340 nm and a fluorescence wavelength of 440 nm.
The structure of the peptide chain was varied in the amino acid sequence of (1) above, fluorescence-labeled synthetic peptides were synthesized in the same manner as above, and cutting activity was measured in the same manner as above to verify the amino acids required for the above specific degradation activity.

[2] = tested on: enzyme described in Japanese Patent Application Publication No. 2000-102381; test: Cutting activity on fluorescence-labeled synthetic peptides, comparison enzyme; type: biochemical, Aureobacterium; details: identical conditions: 10 min at 37° C. in the dark
Description: as §1
For comparison, the cutting activity of the enzyme described in the above-cited patent application publication (Japanese Patent Application Publication No. 2000-102381) was measured under identical conditions.

[3] = tested on: enzyme (protease) of the present invention; type: biochemical, Aureobacterium sp. MIM-CG-9535-I
Description: Reagents in the form of o-phenanthroline, EDTA, EGTA, L-cysteine, 2-mercaptoethanol, N-ethylmaleimide, antipain, leupepsin, E-64, phosphoramidon, trypsin inhibitor, chymostatin, TCPK, PMSF, and iodoacetamide were employed as inhibitors.
Each of the reagents was mixed with the synthetic substrate after which the enzyme was added. The degradation reaction was conducted for 30 min at 37° C. and the enzymatic activity was measured. Adopting the case where no inhibitor was added as 100 percent, the relative residual enzymatic activity was calculated.

[4] = tested on: protease described in Japanese Patent Application Publication No. 2000-102381; details: protease of JP 2000-102381; cited from earlier work
[5] = tested on: protease described in Japanese Patent Application Publication No. 2000-102381; details: protease of JP 2000-102381; cited from earlier work; remark: listed apart in the source
[6] = Temperature stability of the enzyme; type: physicochemical; details: then 30 min at 37° C. with substrate
Description: i) Temperature Stability • The enzyme was left standing for one hour at various temperatures of from 0 to 60° C. and subsequently reacted with a synthetic substrate for 30 min at 37° C. Enzyme activity was then measured.

[7] = inhibitor 20 mM, 30 min at 37° C., no inhibitor = 100 percent
[8] = inhibitor 0.05 mM, 30 min at 37° C., no inhibitor = 100 percent

Pro-Gln-Gly-Ile-Ala-Gly-Gln (PQGIAGQ; also: fluorescence label, site not given here) [Pro-Gln-Gly-↓-Ile-Ala-Gly-Gln, fluorescence-labeled synthetic substrate degraded by the enzyme of the earlier publication]
Protease cutting activity (degradation of synthetic substrate), Enzyme of the present invention [1]: (X) Does not degrade
Protease cutting activity (degradation of synthetic substrate), Enzyme of patent application publication [2]: (◯) Degrades

Pro-Ala-Gly-Phe-Ala-Gly-Pro (PAGFAGP; also: fluorescent label, type and site not given here) [PAG FAGP, fluorescence-labeled synthetic peptide, single letter code]
Present or Absent of Specific degradation activity [1]: Present

N[C@@H](CS)C(=O)O [L-Cys, L-cysteine]
Residual activity (%) [3, 7]: 0%
Enzyme inhibition [4]: inhibited

CCN1C(=O)C=CC1=O [N-Ethylmaleimide, N-ethylmaleimide]
Residual activity (%) [3, 7]: 79%
Enzyme inhibition [4]: not

NC(=O)CI [Iodoacetamide, iodoacetamide]
Residual activity (%) [3, 7]: 77%
Enzyme inhibition [4]: not

DNP-Pro-Gln-Gly-Ile-Ala-Gly-Gln-D-Arg (Dnp-PQGIAGQ[dR]) [synthetic collagenase substrate]
Degradation activity [5]: only slight degradation activity

GPAG FA: fluorescence-labeled synthetic peptide, single letter code (GPAGFA; also: fluorescence label, site not given here)
Present or Absent of Specific degradation activity [1]: Absent

Nma-Thr-Gln-Ser-Leu-Val-Thr-Pro-Lys-(DNP)r-NH2 [Gln-Thr-Gln-Ser-↓-Leu-Val-Thr-Pro]
Protease cutting activity (degradation of synthetic substrate), Enzyme of the present invention [1]: (◯) Degrades
Protease cutting activity (degradation of synthetic substrate), Enzyme of patent application publication [2]: (X) Does not degrade

CC(C)C[C@H](NP(=O)(O)O[C@@H]1O[C@@H](C)[C@H](O)[C@@H](O)[C@H]1O)C(=O)N[C@@H](Cc1c[nH]c2ccccc12)C(=O)O [Phosphoramidon, phosphoramidon]
Residual activity (%) [3, 8]: 91%

AG FAGP: fluorescence-labeled synthetic peptide, single letter code (AGFAGP; also: fluorescence label, site not given here)
Present or Absent of Specific degradation activity [1]: Absent

Cc1ccc(S(=O)(=O)N[C@@H](Cc2ccccc2)C(=O)CCl)cc1 [TCPK]
Residual activity (%) ([3]; inhibitor 0.1 mM, 30 min at 37° C., no inhibitor = 100 percent): 95%

CC(C)C[C@H](NC(=O)[C@@H](NC(=O)N[C@@H](Cc1ccccc1)C(=O)O)[C@@H]1CCN=C(N)N1)C(=O)N[C@H](C=O)Cc1ccccc1 [Chymostatin, chymostatin]
Residual activity (%) [3, 8]: 85%

CC(=O)N[C@@H](CC(C)C)C(=O)N[C@@H](CC(C)C)C(=O)N[C@H](C=O)CCCNC(=N)N [Leupepsin, leupepsin]
Residual activity (%) [3, 8]: 92%

OCCS [2-ME, 2-mercaptoethanol]
Residual activity (%) [3, 7]: 73%

O=C(O)CN(CCN(CC(=O)O)CC(=O)O)CC(=O)O [EDTA, ethylenediamine tetraacetic acid]
Residual activity (%) [3]: 93%
Enzyme inhibition [4]: not

O=S(=O)(F)Cc1ccccc1 [PMSF, phenylmethanesulfonyl fluoride]
Residual activity (%) [3, 7]: 84%
Enzyme inhibition [4]: not

c1cnc2c(c1)ccc1cccnc12 [o-Phenanthroline, o-phenanthroline]
Residual activity (%) ([3]; inhibitor 2 mM, 30 min at 37° C., no inhibitor = 100 percent): 0%
Enzyme inhibition [4]: inhibited

GPAG FAG: fluorescence-labeled synthetic peptide, single letter code (GPAGFAG; also: fluorescence label, site not given here)
Present or Absent of Specific degradation activity [1]: Absent

Nma-Gly-Pro-Gln-Gly-Phe-Gln-Gly-Pro-Lys-(DNP)r-NH2 ({Benzoyl(2-NHMe)}-GPQGFQGP-{K(DNP)-dR-NH2}; SMILES CNc1ccccc1C(=O)NCC(=O)N1CCC[C@H]1C(=O)N[C@@H](CCC(N)=O)C(=O)NCC(=O)N[C@@H](Cc1ccccc1)C(=O)N[C@@H](CCC(N)=O)C(=O)NCC(=O)N1CCC[C@H]1C(=O)N[C@@H](CCCCNc1ccc([N+](=O)[O-])cc1[N+](=O)[O-])C(=O)N[C@H](CCCNC(=N)N)C(N)=O) [Gly-Pro-Gln-Gly-↓-Phe-Gln-Gly-Pro, fluorescence-labeled synthetic substrate]
Protease cutting activity (degradation of synthetic substrate), Enzyme of the present invention [1]: (◯) Degrades
Protease cutting activity (degradation of synthetic substrate), Enzyme of patent application publication [2]: (X) Does not degrade

GPAG F: fluorescence-labeled synthetic peptide, single letter code (GPAGF; also: fluorescence label, site not given here)
Present or Absent of Specific degradation activity [1]: Absent

CC(C)C[C@H](NC(=O)[C@H]1O[C@@H]1C(=O)O)C(=O)NCCCCN=C(N)N [E-64]
Residual activity (%) [3, 8]: 95%

casein
Degradation activity [5]: exhibits degradation activity

Nma-Gly-Pro-Ala-Gly-Phe-Ala-Gly-Pro-Lys-(DNP)r-NH2 ({Benzoyl(2-NHMe)}-GPAGFAGP-{K(DNP)-dR-NH2}; SMILES CNc1ccccc1C(=O)NCC(=O)N1CCC[C@H]1C(=O)N[C@@H](C)C(=O)NCC(=O)N[C@@H](Cc1ccccc1)C(=O)N[C@@H](C)C(=O)NCC(=O)N1CCC[C@H]1C(=O)N[C@@H](CCCCNc1ccc([N+](=O)[O-])cc1[N+](=O)[O-])C(=O)N[C@H](CCCNC(=N)N)C(N)=O) [Gly-Pro-Ala-Gly-↓-Phe-Ala-Gly-Pro, fluorescence-labeled synthetic substrate]
Protease cutting activity (degradation of synthetic substrate), Enzyme of the present invention [1]: (◯) Degrades
Present or Absent of Specific degradation activity [1]: Present
Protease cutting activity (degradation of synthetic substrate), Enzyme of patent application publication [2]: (X) Does not degrade

G FAGP: fluorescence-labeled synthetic peptide, single letter code (GFAGP; also: fluorescence label, site not given here)
Present or Absent of Specific degradation activity [1]: Absent

O=C(O)CN(CCOCCOCCN(CC(=O)O)CC(=O)O)CC(=O)O [EGTA]
Residual activity (%) ([3]; inhibitor 10 mM, 30 min at 37° C., no inhibitor = 100 percent): 68%

DNP-Gln-Gly-Ile-Ala-Gly-Gln-D-Arg (Dnp-QGIAGQ[dR]) [synthetic substrate]
Degradation activity [5]: no degradation activity

B1: protease of the present invention: protease of molecular weight 21,000±1,000 from Aureobacterium sp. MIM-CG-9535-I cutting specific Gly-Phe and Ser-Leu sites (protein, listed as Aureobacterium sp.)
chain: LIVNTVNSIDDKWSDAQASALTYCVSTAFGARHADVVSAMESGAALWEAASSKIDFIYDSSADANCTTRNNAVLFSVEPVQTTQYIARAFFPSTAPRLQNVLIDDSIWTPGSSWTPTNVLGHELGHVLGFRHEHTRPEAGTCFEDDNWRPLTPYDSSSIMHYPQCNGSSADLSMTSVDTDGVVALYGN
Temperature stability: residual activity ([6]; left standing one hour at 30° C.): about half
Temperature stability ([6]; left standing one hour at 40° C. and above): nearly deactivated
